Assay results from US12383544B2, “Methods for the treatment of polycystic kidney disease” (Galapagos NV, priority 2019, dated 2025).

Test system: Pkd1-KO mouse-inner medullary collecting duct cells (mIMRFNPKD 5E4)
Assay: 3D mice cyst assay
Type: cell-based
Conditions: 10 μM; 72 h; forskolin
Description: This assays uses PKD1−/− knocked-down medullary mouse duct cells which form small cysts. This cysts are then further stimulated with forskolin causing their expansion. Test compounds are then added with additional forskolin in order to evaluate their ability to counteract cysts formation. After 3 days, these cells are imaged, to measure in particular cyst size, cell number, nucleus shape, wall thickness.
The 3D cyst culture assay has been performed with Pkd1-KO mouse-inner medullary collecting duct cells (m[…] 5E4) cells as described previously. (Booij et al. 2017) In short: m[…] 5.10^4 cells were mixed with Cyst-Gel (OcellO B. V., Oortweg 21, Leiden, 2333CH, Netherlands). 15 μL of cell-gel mix was pipetted to 384-well plates (Greiner μClear, Greiner Bio-One B.V.) using a CyBio Felix 96/60 robotic liquid dispenser (Analyik Jena A G). Gel-cell mix was plated at a final cell density of 2250 cells per well. After gel polymerization at 37° C. for 30 min, 33 μL culture medium was added to each well. Cells were grown in gel for 96 h, after which the cells were co-exposed with forskolin (Calbiochem) and the following molecules: Rapamycin (SelleckChem, S1039), Staurosporin (SelleckChem, 51421) were used as cyst inhibiting or toxic control respectively. Test compounds were tested in the 3D assay at the indicated final concentrations. […]

COC1CCN(C2CCN(c3cc(C(=O)NS(=O)(=O)N(C)C)nc4c3c(C3CCC3)nn4-c3ccc(F)cc3)CC2)CC1 [Cpd 1]
cyst swelling compared to vehicle (set at 100%): 14.5% | reduction in cyst swelling: 85.5%
